Test results reported in patent publication EP4745138A1, “THIO-GLUTARIMIDO ISOINDOLINONE DERIVATIVE, BIFUNCTIONAL PROTEIN DEGRADER CONTAINING SAME, AND USES THEREOF” (Gluetacs Therapeutics (Shanghai) Co., Ltd., priority 2023, dated 2025).

Biological target: T1, human Cereblon WT GST-tagged protein (Homo sapiens, UniProt Q96SW2)
T1 construct: purchased CISBIO 64BDCRBNPEH
Test: CRBN-binding affinity, HTRF (CEREBLON BINDING kit)
Conditions: for inhibition at 0.5 µM: read-out: Inhibition Rate at 0.5 µM (%); for inhibition at 2 µM: read-out: Inhibition Rate at 2 µM (%)
From the text: The CEREBLON BINDING kits (specification: 10,000 tests; product number: Catalog # 64BDCRBNPEH; CISBIO company) was used to determine the CRBN binding ability of the compounds to be tested through a HTRF method (homogeneous time-resolved fluorescence). The specific methods are as follows: • 1. […] Specifically, diluent #9 (1X) solution was used as the diluent, and multiple concentration gradients were set. […] Into the 96-well plate, the diluted test compounds and corresponding detection reagents were added, resulting in final test compound concentrations of 2 µM and 0.5 µM, respectively. […] Then, 2.5 µL of human Cereblon WT GST-tagged protein solution was added to each well. Finally, 5 µL of the thoroughly mixed Thalidomide-Re reagent and GST Eu antibody working solution were added to each of the aforementioned wells. […] The blank control wells were sequentially added with 2.5 µL of diluent #9 (1X) solution, 2.5 µL of PROTAC binding buffer, and 5 µL of thoroughly mixed Thalidomide-Re reagent and GST Eu antibody working solution. • 4.

T1 sequence (Q96SW2 whole entry): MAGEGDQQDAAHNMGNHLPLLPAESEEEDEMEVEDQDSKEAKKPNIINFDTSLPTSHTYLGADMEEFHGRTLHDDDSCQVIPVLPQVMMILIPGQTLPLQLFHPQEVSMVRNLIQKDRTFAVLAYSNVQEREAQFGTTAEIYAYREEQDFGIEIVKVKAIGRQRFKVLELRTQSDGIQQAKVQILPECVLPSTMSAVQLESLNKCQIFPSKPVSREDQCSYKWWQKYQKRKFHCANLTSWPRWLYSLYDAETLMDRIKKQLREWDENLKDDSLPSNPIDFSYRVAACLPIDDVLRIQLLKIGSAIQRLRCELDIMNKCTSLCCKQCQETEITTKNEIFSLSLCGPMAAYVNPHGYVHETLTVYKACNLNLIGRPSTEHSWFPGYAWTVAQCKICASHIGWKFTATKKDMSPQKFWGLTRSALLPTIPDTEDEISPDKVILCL

| SMILES | inhibition at 0.5 µM [%] | inhibition at 2 µM [%] |
| --- | --- | --- |
| COc1cc(N2CCC(N3CCN(C)CC3)CC2)ccc1Nc1ncc(Cl)c(Nc2ccccc2P(C)(C)=O)n1 [Brigatinib, reference compound] | 0 to 10 | 10 to 20 |
| COc1cc(N2CCC(N3CCN(Cc4cccc5c4CN(C4CCC(=O)NC4=O)C5=S)CC3)CC2)c(C)cc1Nc1ncc(Br)c(Nc2ccc3nccnc3c2P(C)(C)=O)n1 (stereo not drawn) [GT-05058, 3-(4-((4-(1-(4-((5-bromo-4-((5-(dimethylphosphoryl)quinoxalin-6-yl)amino)pyrimidin-2-yl)amino)-5-methoxy-2-methylphenyl)piperidin-4-yl)piperazin-1-yl)methyl)-1-thioxoisoindolin-2-yl)piperidine-2,6-dione] | 40 to 53 | 80 to 100 |
| Nc1ncnc2c1c(-c1ccc(Oc3ccccc3)cc1)nn2C1CCN(Cc2cccc3c2CN(C2CCC(=O)NC2=O)C3=S)CC1 (stereo not drawn) [GT-05074, 3-(4-((4-(4-amino-3-(4-phenoxyphenyl)-1H-pyrazolo[3,4-d]pyrimidin-1-yl)piperidin-1-yl)methyl)-1-thioxoisoindolin-2-yl)piperidine-2,6-dione] | 40 to 53 | 60 to 80 |
| CC(C)Nc1cc(-n2ccc3cc(C#N)cnc32)ncc1C(=O)NC1CCN(Cc2ccc3c(c2)CN(C2CCC(=O)NC2=O)C3=S)CC1 (stereo not drawn) [GT-05294, 6-(5-cyano-1H-pyrrolo[2,3-b]pyridin-1-yl)-N-(1-((2-(2,6-dioxopiperidin-3-yl)-1-thioxoisoindolin-5-yl)methyl)piperidin-4-yl)-4-(isopropylamino)nicotinamide] | 60 to 80 | 80 to 100 |
| COc1cc2nn(C3CCN(Cc4ccc5c(c4)CN(C4CCC(=O)NC4=O)C5=S)CC3)cc2cc1NC(=O)c1cccc(C(F)(F)F)c1 (stereo not drawn) [GT-05295, N-(2-(1-((2-(2,6-dioxopiperidin-3-yl)-1-thioxoisoindolin-5-yl)methyl)piperidin-4-yl)-6-methoxy-2H-indazol-5-yl)-3-(trifluoromethyl)benzamide] | 60 to 80 | 80 to 100 |
| CC(C)(O)c1cc2nc(C3CCN(Cc4ccc5c(c4)CN(C4CCC(=O)NC4=O)C5=S)CC3)sc2cc1NC(=O)c1cccc(C(F)(F)F)n1 (stereo not drawn) [GT-05298, N-(2-(1-((2-(2,6-dioxopiperidin-3-yl)-1-thioxoisoindolin-5-yl)methyl)piperidin-4-yl)-5-(2-hydroxypropan-2-yl)benzo[d]thiazol-6-yl)-6-(trifluoromethyl)picolinamide] | 80 to 100 | 80 to 100 |
| CC(C)(O)c1cc2nc(C3CCN(Cc4ccc5c(c4)CN(C4CCC(=O)NC4=O)C5=S)CC3)oc2cc1NC(=O)c1cccc(C(F)(F)F)n1 (stereo not drawn) [GT-05320, N-(2-(1-((2-(2,6-dioxopiperidin-3-yl)-1-thioxoisoindolin-5-yl)methyl)piperidin-4-yl)-5-(2-hydroxypropan-2-yl)benzo[d]oxazol-6-yl)-6-(trifluoromethyl)picolinamide] | 80 to 100 | 80 to 100 |
| Nc1nnc(-c2cc(F)ccc2O)cc1N1CCN(Cc2ccc3c(c2)CN(C2CCC(=O)NC2=O)C3=S)CC1 (stereo not drawn) [GT-08712, 3-(5-((4-(3-amino-6-(5-fluoro-2-hydroxyphenyl)pyridazin-4-yl)piperazin-1-yl)methyl)-1-thioxoisoindolin-2-yl)piperidine-2,6-dione] | 60 to 80 | 80 to 100 |
| Nc1nnc(-c2cc(F)ccc2O)cc1N1CC2CCC(C1)N2Cc1ccc2c(c1)CN(C1CCC(=O)NC1=O)C2=S (stereo not drawn) [GT-08713, 3-(5-((3-(3-amino-6-(5-fluoro-2-hydroxyphenyl)pyridazin-4-yl)-3,8-diazabicyclo[3.2.1]octan-8-yl)methyl)-1-thioxoisoindolin-2-yl)piperidine-2,6-dione] | 40 to 53 | 80 to 100 |
